Test results taken from patent US20060167062A1, “Enema preparation” (priority 2003, published 2006).

Legend:
[1] = system: rat model of colitis; test: Rat model of colitis (TNBS-induced), incidence of diarrhea, oral administration; assay type: in vivo
Protocol: A rat model of colitis was prepared in accordance with the method by Morris et al. (Morris GP et al., Hapten-induced model of chronic inflammation and ulceration in the rat colon. Gasteroenterology, 96: 795-803, 1989). Specifically, the rats were fasted for approximately 24 hr and anesthetized with ether. A Teflon catheter (registered trade mark) was inserted into the lumen of the colon via the anus. The tip of the catheter was advanced to 8 cm from the anus, and 0.25 ml of TNBS solution (final concentration of 60 mg/mL in 50% ethanol) was injected into the colon. Rats were held in a vertical position for 30 seconds after TNBS injection (Day-0).
On the Day-B, the rats were anesthetized with ether, and sacrificed by exsanguination. The colon, from the end of the cecum to the anus, was excised, opened by a longitudinal incision, and the feces were macroscopically assessed at the excision of colons. When feces were not solid, it ws judged as diarrhea. Rats with no feces in the colon were excluded from diarrhea evaluation.

[2] = system: rat model of colitis; test: Rat model of colitis (TNBS-induced), incidence of diarrhea, enema (intra-rectal) administration; assay type: in vivo; conditions: for incidence of diarrhea: vehicle control 73.9%
Protocol: A rat model of colitis was prepared in accordance with the method by Morris et al. (Morris GP et al., Hapten-induced model of chronic inflammation and ulceration in the rat colon. Gasteroenterology, 96: 795-803, 1989). Specifically, the rats were fasted for approximately 24 hr and anesthetized with ether. A Teflon catheter (registered trade mark) was inserted into the lumen of the colon via the anus. The tip of the catheter was advanced to 8 cm from the anus, and 0.25 ml of TNBS solution (final concentration of 60 mg/mL in 50% ethanol) was injected into the colon. Rats were held in a vertical position for 30 seconds after TNBS injection (Day-0). One day after an injection of TNBS (Day-1), rats were randomly allocated to the four groups described below based on body weight using a stratified random sampling method. The groups were as follows: The pharmacologically active ingredient and its vehicle were delivered at 8 cm orad to the anal verge of conscious rats through a Teflon catheter (registered trade mark) inserted into the lumen of the colon via the anus. They were administered once daily in the morning for 7 consecutive days from Day-1. On the Day-B, the rats were anesthetized with ether, and sacrificed by exsanguination. The colon, from the end of the cecum to the anus, was excised, opened by a longitudinal incision, and the feces were macroscopically assessed at the excision of colons. When feces were not solid, it ws judged as diarrhea. Rats with no feces in the colon were excluded from diarrhea evaluation. The results of the incidence of diarrhea were expressed as the proportion of rats with diarrhea in each group. Statistical analysis was performed between the vehicle control group (Group A) and the groups administered with the pharmacologically active ingredient (Group B to D) using Fisher's exact test (two-sided) to which Bonferroni correction, which takes multiplicity into consideration, was applied. Statistical significance is defined as p<0.05.

CCOc1ccc(-c2nc(-c3cccc(C(=O)O)n3)cs2)cc1OCC [pharmacologically active ingredient, 6-[2-(3,4-diethoxyphenyl)thiazol-4-yl]pyridine-2-carboxylic acid]
incidence of diarrhea with oral administration ([1]; 1 mg/kg/day): significantly effective | incidence of diarrhea with oral administration ([1]; lower than 1 mg/kg/day): no significant decrease | incidence of diarrhea ([2]; Group B, 0.1 mg/kg/day enema once daily for 7 consecutive days from Day-1): 33.3% | incidence of diarrhea ([2]; Group C, 0.3 mg/kg/day enema once daily for 7 consecutive days from Day-1): 20.0% | incidence of diarrhea ([2]; Group D, 1 mg/kg/day enema once daily for 7 consecutive days from Day-1): 20.0% | incidence of diarrhea compared with the vehicle control group ([2]; Groups B to D, 0.1 to 1 mg/kg/day enema, Fisher's exact test with Bonferroni correction, p<0.05): suppressed significantly | amount with significant disorder-suppressing effect, intra-rectal relative to oral administration ([2]; intra-rectal versus oral, rat model of colitis): one tenth
